Assay results as given in patent publication US12059393B2, “Compositions for topical treatment of radiation dermatitis” (Akos Biosciences, Inc, priority 2022, dated 2024).

Legend:
[1] = Body weight change in irradiated mice; assay type: in vivo, Balb/c mice
Method: (§1) A study was performed on mice to determine the efficacy of topically-dosed CBD in an olive oil vehicle for the treatment of acute radiation-induced dermatitis. Three different CBD dosages were used— 30 mg/mL (3 wt %), 120 mg/mL (12 wt %), and 250 mg/mL (25 wt %).
(§2) 144 female Balb/c mice with an average starting body weight (±SEM) of 17.96±0.12 grams were randomized into six (6) groups of 24 animals each, as follows:
(§3) The control group (Group 1) was not irradiated. The animals in Groups 2-6 were anesthetized via a single intraperitoneal injection of xylazine and ketamine prior to being administered a single dose of 30 Grays (Gy) of radiation directed at a 2 cm×4 cm patch of shaved dorsal skin on Day 0. Radiation was generated by a 160 kVp (15-ma) X-ray source at a focal distance of 10 cm, hardened with a 0.35 mm Cu filtration system at a rate of approximately 3.2 Gy/minute.
(§4) Dosing for animals in Groups 3-6 began on Day 0 immediately after radiation. Treatments were administered topically (0.1 mL per animal) daily from Days 0-28.
(§5) Starting on Day 8 and continuing every other day thereafter (Days 8-28), each animal was evaluated for skin redness and dermatitis, and photographed for subsequent blinded scoring of dermatitis at the completion of the study. Body weight was taken daily.

[2] = system: acute radiation-induced dermatitis; assay: Blinded clinical dermatitis scoring in mouse radiation dermatitis model; assay type: in vivo, Balb/c mice; parameters: key to Dermatitis score (mean): dermatitis scale 0 to 5, 1.0-unit increments; conditions: for Dermatitis score % Change Group 4 vs. Group 3: 30 mg/mL CBD vs olive oil only; for Dermatitis score % Change Group 4 vs. Group 2: 30 mg/mL CBD vs radiation only; for Dermatitis score (mean): Group 4 (30 mg/mL CBD)
Method: as §1, §2, §3, §4, §5
Dermatitis was measured by blinded scoring of photographs at the end of the study. Two independent observers graded the photographs, and results were reported on a scale of 0 to 5 in 1.0 unit increments. The scale is described in the table below:
Data were evaluated using one-way ANOVA with Dunnett's multiple comparisons test to compare all groups to the vehicle control group using GraphPad Prism 8.4.3 (La Jolla, CA Duration of dermatitis data was evaluated using the Chi-square test to compare all groups to the vehicle-control group and radiation only group using SigmaPlot 11.0 (Systat Software, Inc.). Statistical significance was achieved when p<0.05.
The following table provides information on the duration of moderate dermatitis, which is defined as the number of days on which scores were at least 2
Bold values indicate a decrease (improvement), and underlined values indicate an increase (worsening).

[3] = 30 mg/mL CBD, 148 total animal days
[4] = 120 mg/mL CBD, 148 total animal days
[5] = 150 mg/mL CBD, 147 total animal days

C=C(C)[C@@H]1CCC(C)=C[C@H]1c1c(O)cc(CCCCC)cc1O [CBD, 2-[(1R,6R)-6-Isopropenyl-3-methylcyclohex-2-en-1-yl]-5-pentylbenzene-1,3-diol]
Percent weight change over time ([1]; 30 mg/mL and 120 mg/mL CBD groups, topical daily Days 0-28, FIG. 1): most closely followed the curve of the naïve group
Percent weight change, difference between CBD-treated groups and the other three groups ([1]; three CBD-treated groups (30, 120, 250 mg/mL)): not found to be statistically significant
% Days ≥2 ([2]; 30 mg/mL CBD): 50.68%
Mean dermatitis scores compared against Group 2 (radiation only) and Group 3 (olive oil only) ([2]; 30 mg/mL CBD (Group 4)): consistently decreased mean dermatitis scores
Percentage of days with moderate dermatitis compared to the Olive oil only group (Group 3) ([2]; 30 mg/mL CBD (Group 4)): significantly lower
Percentages of animals with moderate or severe dermatitis ([2]; 30 mg/mL CBD (Group 4), majority of surveyed days, vs olive oil only group): reduced percentages of animals with moderate or severe dermatitis
Dermatitis score % Change Group 4 vs. Group 3 ([2]; Day 8): −22.22%
Dermatitis score % Change Group 4 vs. Group 3 ([2]; Day 10): −18.75%
Dermatitis score % Change Group 4 vs. Group 3 ([2]; Day 12): −21.62%
Dermatitis score % Change Group 4 vs. Group 3 ([2]; Day 14): −20.00%
Dermatitis score % Change Group 4 vs. Group 3 ([2]; Day 16): −23.33%
Dermatitis score % Change Group 4 vs. Group 3 ([2]; Day 18): −34.62%
Dermatitis score % Change Group 4 vs. Group 3 ([2]; Day 20): −38.10%
Dermatitis score % Change Group 4 vs. Group 3 ([2]; Day 22): −17.65%
Dermatitis score % Change Group 4 vs. Group 3 ([2]; Day 24): −23.53%
Dermatitis score % Change Group 4 vs. Group 3 ([2]; Day 26): −29.41%
Dermatitis score % Change Group 4 vs. Group 3 ([2]; Day 28): −31.25%
Dermatitis score % Change Group 4 vs. Group 2 ([2]; Day 8): 101.92%
Dermatitis score % Change Group 4 vs. Group 2 ([2]; Day 10): 10.80%
Dermatitis score % Change Group 4 vs. Group 2 ([2]; Day 12): −15.04%
Dermatitis score % Change Group 4 vs. Group 2 ([2]; Day 14): −8.78%
Dermatitis score % Change Group 4 vs. Group 2 ([2]; Day 16): −29.72%
Dermatitis score % Change Group 4 vs. Group 2 ([2]; Day 18): −35.07%
Dermatitis score % Change Group 4 vs. Group 2 ([2]; Day 20): −43.25%
Dermatitis score % Change Group 4 vs. Group 2 ([2]; Day 22): −32.46%
Dermatitis score % Change Group 4 vs. Group 2 ([2]; Day 24): −40.42%
Dermatitis score % Change Group 4 vs. Group 2 ([2]; Day 26): −42.11%
Dermatitis score % Change Group 4 vs. Group 2 ([2]; Day 28): −46.93%
Percentage of Animals with Moderate Dermatitis (≥2) ([2]; 30 mg/mL CBD, Day 8): 18.8%
Percentage of Animals with Moderate Dermatitis (≥3) ([2]; 30 mg/mL CBD, Day 8): 0%
Percentage of Animals with Moderate Dermatitis (≥2) ([2]; 30 mg/mL CBD, Day 10): 75%
Percentage of Animals with Moderate Dermatitis (≥3) ([2]; 30 mg/mL CBD, Day 10): 6.3%
Percentage of Animals with Moderate Dermatitis (≥2) ([2]; 30 mg/mL CBD, Day 12): 81.3%
Percentage of Animals with Moderate Dermatitis (≥3) ([2]; 30 mg/mL CBD, Day 12): 18.8%
Percentage of Animals with Moderate Dermatitis (≥2) ([2]; 30 mg/mL CBD, Day 14): 75%
Percentage of Animals with Moderate Dermatitis (≥3) ([2]; 30 mg/mL CBD, Day 14): 56.3%
Percentage of Animals with Moderate Dermatitis (≥2) ([2]; 30 mg/mL CBD, Day 16): 75%
Percentage of Animals with Moderate Dermatitis (≥3) ([2]; 30 mg/mL CBD, Day 16): 41.7%
Percentage of Animals with Moderate Dermatitis (≥2) ([2]; 30 mg/mL CBD, Day 18): 66.7%
Percentage of Animals with Moderate Dermatitis (≥3) ([2]; 30 mg/mL CBD, Day 18): 0%
Percentage of Animals with Moderate Dermatitis (≥2) ([2]; 30 mg/mL CBD, Day 20): 33.3%
Percentage of Animals with Moderate Dermatitis (≥3) ([2]; 30 mg/mL CBD, Day 20): 0%
Percentage of Animals with Moderate Dermatitis (≥2) ([2]; 30 mg/mL CBD, Day 22): 47.7%
Percentage of Animals with Moderate Dermatitis (≥3) ([2]; 30 mg/mL CBD, Day 22): 0%
Percentage of Animals with Moderate Dermatitis (≥2) ([2]; 30 mg/mL CBD, Day 24): 33.3%
Percentage of Animals with Moderate Dermatitis (≥3) ([2]; 30 mg/mL CBD, Day 24): 0%
Percentage of Animals with Moderate Dermatitis (≥2) ([2]; 30 mg/mL CBD, Day 26): 25%
Percentage of Animals with Moderate Dermatitis (≥3) ([2]; 30 mg/mL CBD, Day 26): 0%
Percentage of Animals with Moderate Dermatitis (≥2) ([2]; 30 mg/mL CBD, Day 28): 16.7%
Percentage of Animals with Moderate Dermatitis (≥3) ([2]; 30 mg/mL CBD, Day 28): 0%
Days <2 (animal days) [2, 3]: 73
Days ≥2 (duration of moderate dermatitis, animal days) [2, 3]: 75
% Days ≥2 ([2]; 120 mg/mL CBD): 59.46%
Percentage of Animals with Moderate Dermatitis (≥2) ([2]; 120 mg/mL CBD, Day 8): 18.8%
Percentage of Animals with Moderate Dermatitis (≥3) ([2]; 120 mg/mL CBD, Day 8): 0%
Percentage of Animals with Moderate Dermatitis (≥2) ([2]; 120 mg/mL CBD, Day 10): 87.5%
Percentage of Animals with Moderate Dermatitis (≥3) ([2]; 120 mg/mL CBD, Day 10): 6.3%
Percentage of Animals with Moderate Dermatitis (≥2) ([2]; 120 mg/mL CBD, Day 12): 93.8%
Percentage of Animals with Moderate Dermatitis (≥3) ([2]; 120 mg/mL CBD, Day 12): 50%
Percentage of Animals with Moderate Dermatitis (≥2) ([2]; 120 mg/mL CBD, Day 14): 100%
Percentage of Animals with Moderate Dermatitis (≥3) ([2]; 120 mg/mL CBD, Day 14): 75%
Percentage of Animals with Moderate Dermatitis (≥2) ([2]; 120 mg/mL CBD, Day 16): 83.3%
Percentage of Animals with Moderate Dermatitis (≥3) ([2]; 120 mg/mL CBD, Day 16): 25%
Percentage of Animals with Moderate Dermatitis (≥2) ([2]; 120 mg/mL CBD, Day 18): 83.3%
Percentage of Animals with Moderate Dermatitis (≥3) ([2]; 120 mg/mL CBD, Day 18): 8.3%
Percentage of Animals with Moderate Dermatitis (≥2) ([2]; 120 mg/mL CBD, Day 20): 58.3%
Percentage of Animals with Moderate Dermatitis (≥3) ([2]; 120 mg/mL CBD, Day 20): 0%
Percentage of Animals with Moderate Dermatitis (≥2) ([2]; 120 mg/mL CBD, Day 22): 33.3%
Percentage of Animals with Moderate Dermatitis (≥3) ([2]; 120 mg/mL CBD, Day 22): 0%
Percentage of Animals with Moderate Dermatitis (≥2) ([2]; 120 mg/mL CBD, Day 24): 33.3%
Percentage of Animals with Moderate Dermatitis (≥3) ([2]; 120 mg/mL CBD, Day 24): 0%
Percentage of Animals with Moderate Dermatitis (≥2) ([2]; 120 mg/mL CBD, Day 26): 33.3%
Percentage of Animals with Moderate Dermatitis (≥3) ([2]; 120 mg/mL CBD, Day 26): 0%
Percentage of Animals with Moderate Dermatitis (≥2) ([2]; 120 mg/mL CBD, Day 28): 8.3%
Percentage of Animals with Moderate Dermatitis (≥3) ([2]; 120 mg/mL CBD, Day 28): 0%
Days <2 (animal days) [2, 4]: 60
Days ≥2 (duration of moderate dermatitis, animal days) [2, 4]: 88
Days <2 (animal days) [2, 5]: 57
Days ≥2 (duration of moderate dermatitis, animal days) [2, 5]: 90
Percentage of Animals with Moderate Dermatitis (≥2) ([2]; 250 mg/mL CBD, Day 8): 12.5%
Percentage of Animals with Moderate Dermatitis (≥3) ([2]; 250 mg/mL CBD, Day 8): 6.3%
Percentage of Animals with Moderate Dermatitis (≥2) ([2]; 250 mg/mL CBD, Day 10): 75%
Percentage of Animals with Moderate Dermatitis (≥3) ([2]; 250 mg/mL CBD, Day 10): 12.5%
Percentage of Animals with Moderate Dermatitis (≥2) ([2]; 250 mg/mL CBD, Day 12): 100%
Percentage of Animals with Moderate Dermatitis (≥3) ([2]; 250 mg/mL CBD, Day 12): 62.5%
Percentage of Animals with Moderate Dermatitis (≥2) ([2]; 250 mg/mL CBD, Day 14): 93.8%
Percentage of Animals with Moderate Dermatitis (≥3) ([2]; 250 mg/mL CBD, Day 14): 93.3%
Percentage of Animals with Moderate Dermatitis (≥2) ([2]; 250 mg/mL CBD, Day 16): 93.7%
Percentage of Animals with Moderate Dermatitis (≥3) ([2]; 250 mg/mL CBD, Day 16): 75%
Percentage of Animals with Moderate Dermatitis (≥2) ([2]; 250 mg/mL CBD, Day 18): 83.3%
Percentage of Animals with Moderate Dermatitis (≥3) ([2]; 250 mg/mL CBD, Day 18): 58.3%
Percentage of Animals with Moderate Dermatitis (≥2) ([2]; 250 mg/mL CBD, Day 20): 66.7%
Percentage of Animals with Moderate Dermatitis (≥3) ([2]; 250 mg/mL CBD, Day 20): 25%
Percentage of Animals with Moderate Dermatitis (≥2) ([2]; 250 mg/mL CBD, Day 22): 33.3%
Percentage of Animals with Moderate Dermatitis (≥3) ([2]; 250 mg/mL CBD, Day 22): 0%
Percentage of Animals with Moderate Dermatitis (≥2) ([2]; 250 mg/mL CBD, Day 24): 50%
Percentage of Animals with Moderate Dermatitis (≥3) ([2]; 250 mg/mL CBD, Day 24): 0%
Percentage of Animals with Moderate Dermatitis (≥2) ([2]; 250 mg/mL CBD, Day 26): 50%
Percentage of Animals with Moderate Dermatitis (≥3) ([2]; 250 mg/mL CBD, Day 26): 0%
Percentage of Animals with Moderate Dermatitis (≥2) ([2]; 250 mg/mL CBD, Day 28): 0%
Percentage of Animals with Moderate Dermatitis (≥3) ([2]; 250 mg/mL CBD, Day 28): 0%
Dermatitis score (mean) ([2]; Day 8): 0.88
Dermatitis score (mean) ([2]; Day 10): 1.63
Dermatitis score (mean) ([2]; Day 12): 1.81
Dermatitis score (mean) ([2]; Day 14): 2.25
Dermatitis score (mean) ([2]; Day 16): 1.92
Dermatitis score (mean) ([2]; Day 18): 1.42
Dermatitis score (mean) ([2]; Day 20): 1.08
Dermatitis score (mean) ([2]; Day 22): 1.17
Dermatitis score (mean) ([2]; Day 24): 1.08
Dermatitis score (mean) ([2]; Day 26): 1.00
Dermatitis score (mean) ([2]; Day 28): 0.92
Percentage of days with moderate dermatitis compared to the irradiated group (Group 2) ([2]; all CBD-treated groups (Groups 4, 5, 6)): significantly lower
